Patent US9669015B2, “Piperidine-2, 6-dione derivatives and their use as tumor necrosis factor inhibitors” (Tianjin Hemay Bio-Tech Co., Ltd., priority 2005, dated 2017)

Assays:
Solubility in water = format: physicochemical
TNFα released by PBMCs = assay: Inhibition of TNFα released by PBMCs after LPS stimulation in vitro (ELISA); format: cell-based, human; details: for Inhibition Degree (%): TNFα inhibition rate, LPS 0.1 μg/ml-stimulated PBMCs, compound concentration 3.0 μM; for EC50: concentration giving 50% TNFα inhibition, LPS-stimulated PBMCs, nonlinear regression
From the text: Pharmacological Research: Effects of Monocyte (PBMC) Stimulation by LPS on TNFα
Cytokine TNFα released by PBMCs in peripheral blood after lip polysaccharide (LPS) stimulation in vitro was studied. The followings are research methods of cytokine TNFα released by PBMCs, which are inhibited by compounds of the invention.
PBMCs were obtained from blood of at least three volunteers after heparin treatment, by the method of gradient extraction. PBMCs were collected and washed with 1640 culture medium three times (10% calf serum, 2 mM L-glutamine, […] mercaptoethanol, 50 μg/ml streptomycin, 50 U/ml penicillin). The above PBMCs were placed onto a 24-well cell culture plate. The concentration was adjusted to 1×10^6 cells/ml with 1640 culture medium. Test compounds were dissolved in dimethylsulfoxide at an appropriate concentration. The resultant solution was added to the above cell culture medium and the culture plate was placed in a CO2 incubator (5% CO2, 90% humidity) for 1 hour. Then, LPS (Sigma) was added to adjust the concentration to 0.1 μg/ml (except for contrast). After 20 hrs of incubation, the content of TNFα in supernatant of the above PBMC culture medium was determined by ELISA kit (America Genzyme Co) using standard method. The measured value of the control (no active compound), and the measured value of the tested compounds was used to calculate the TNFα inhibition rate. The concentration of compounds giving a 50% TNFα inhibition (IC50 value) was calculated by nonlinear regression analysis. Each concentration was determined twice and an average value was obtained.

[1] = Homo sapiens, PBMC, read-out: Inhibition Degree (%)

With “2-(1-(2-hydroxyethyl)-2,6-dioxopiperidin-3-yl)isoindolin-1,3-dione 2-(1-piperidyl)acetate hydrochloride [Example 14]” the Solubility in water (Solubility in water) was “more than 100 mg/mL”.
For “2-(1-(2-hydroxyethyl)-2,6-dioxopiperidin-3-yl)isoindolin-1,3-dione 2-(diethylamino)acetate hydrochloride [Example 10]”, the Solubility in water (Solubility in water) was “higher than 100 mg/mL”.
For “4,5,6,7-tetrafluoro-2-(1-(2-methoxyethyl)-2,6-dioxopiperidin-3-yl)-4-nitroisoindoline-1,3-dione [Example 31]”, the “Inhibition Degree (%)” value (TNFα released by PBMCs) was 62%.
With “4-fluoro-2-(1-(2-methoxyethyl)-2,6-dioxopiperidin-3-yl)-4-nitroisoindoline-1,3-dione [Example 30]” the “Inhibition Degree (%)” value (TNFα released by PBMCs) was 58%.
`O=C1CCC(N2C(=O)c3ccccc3C2=O)C(=O)N1CCO` (stereo not drawn) [Example 1, 2-(1-(2-Hydroxyethyl)-2,6-dioxopiperidin-3-yl)isoindoline-1,3-dione] showed an inhibition at 3 µM (TNFα released by PBMCs; [1]) of 70%.
With `CCN(CC)CC(=O)OCCN1C(=O)CCC(N2C(=O)c3ccccc3C2=O)C1=O` (stereo not drawn) [Example 9, 2-(1-(2-hydroxyethyl)-2,6-dioxopiperidin-3-yl)isoindolin-1,3-dione 2-(diethylamino)acetate] the “Inhibition Degree (%)” value (TNFα released by PBMCs) was 20%.
Work on `O=C1CCC(N2C(=O)c3ccccc3C2=O)C(=O)N1CCCCO` (stereo not drawn) [Example 22, 2-(1-(4-hydroxybutyl)-2,6-dioxopiperidin-3-yl)isoindoline-1,3-dione] yielded an inhibition at 3 µM (TNFα released by PBMCs; [1]) of 18%.
Work on `O=C1CCC(N2C(=O)c3cccc([N+](=O)[O-])c3C2=O)C(=O)N1CCO` (stereo not drawn) [Example 24, 2-(1-(2-hydroxyethyl)-2,6-dioxopiperidin-3-yl)-4-nitroisoindoline-1,3-dione] yielded an inhibition at 3 µM (TNFα released by PBMCs; [1]) of 28%.
With `Nc1cccc2c1C(=O)N(C1CCC(=O)N(CCO)C1=O)C2=O` (stereo not drawn) [Example 26, 4-amino-2-(1-(2-hydroxyethyl)-2,6-dioxopiperidin-3-yl)isoindoline-1,3-dione] the EC50 (TNFα released by PBMCs; Homo sapiens, PBMC) was 250 nM and the inhibition at 3 µM (TNFα released by PBMCs; [1]) was 95%.
Compound `COCCN1C(=O)CCC(N2C(=O)c3cccc(N)c3C2=O)C1=O` (stereo not drawn) [Example 27, 4-amino-2-(1-(2-methoxyethyl)-2,6-dioxopiperidin-3-yl)isoindoline-1,3-dione] has an EC50 (TNFα released by PBMCs; Homo sapiens, PBMC) of 300 nM and an inhibition at 3 µM (TNFα released by PBMCs; [1]) of 92%.
Compound `COCCN1C(=O)CCC(N2C(=O)c3cccc(NC(C)=O)c3C2=O)C1=O` (stereo not drawn) [Example 28, N-(2-(1-(2-methoxyethyl)-2,6-dioxopiperidin-3-yl)-1,3-dioxoisoindolin-7-yl)acetamide] has an inhibition at 3 µM (TNFα released by PBMCs; [1]) of 78%.
`COCCN1C(=O)CCC(N2C(=O)c3cccc(N(C)C)c3C2=O)C1=O` (stereo not drawn) [Example 29, 4-(dimethylamino)-2-(1-(2-methoxyethyl)-2,6-dioxopiperidin-3-yl)isoindoline-1,3-dione] gave an inhibition at 3 µM (TNFα released by PBMCs; [1]) of 64%.
`O=C1CCC(N2C(=O)c3ccccc3C2=O)C(=O)N1` (stereo not drawn) [Thalidomide, reference compound] showed an inhibition at 100 µM (TNFα released by PBMCs; [1]) of 22%.
